The test system of assay [1] is HK II promoter in NCI-H661 cells. In words: Regulation of HK II promoter (pHexII4557 CAT) by glucose, insulin, glucagon. It is filed as cell-based, human. To be noted: NCI-H661 transfected with pHexII4557 CAT; 25 mM glucose, 100 nM insulin, 10 μM glucagon.
Description: Transient transfections were performed using Lipofect AMINE (Canadian Life Technologies. Burlington, ON, Canada). Seventy to 80% confluent cells were transfected with 1 μg of the reporter plasmid pCAT, pMUCI-1583 CAT, pHexII4557 CAT, or pRSV CAT (Rous sarcoma virus long terminal repeat promoter) (ATCC). One microgram of pSV2-Pgalactosidase (Promega) was cotransfected as an internal control for variations in transfection efficiency in serum-free Dulbecco's modified Eagle's medium (DMEM). The medium was replaced with fresh growth medium after 6 hr. In promoter regulation experiments, the cells were transfected in RPMI 1640 glucose-deficient medium. Six hours after transfection, the medium was replaced with RPMI 1640 glucose-deficient medium supplemented with 100 nM bovine insulin. 25 mM glucose, or 10 μM glucagon (Sigma Aldrich Canada. Oakville. ON, Canada) or a combination of insulin and glucose, supplemented with 1 mM sodium pyruvate and 100 μM glucose. […] The protein concentration of the extracts was measured using the Bradford protein assay from Bio-Rad (Mississauga, ON. Canada) and equal amounts were assayed in the chloramphenicol acetyltransferase (CAT) and β-galactosidase assays, which were carried out as described by the manufacturer (Promega). Percent acetylation was measured using the Bio-Rad Gelscan Phos-phoimager and the Molecular Analyst software program. […]
The subject of assay [2] is H661 non-small cell lung carcinoma cells. In words: CAT reporter gene assay, Hex II promoter activation (first series). It is filed as cell-based, human. To be noted: treatment of the transfectants. Here is the method:
Transient transfections were performed using lipofectamine according to the manufacturer's recommendations (GIBCO-BRL). Cells were plated the day before transfection to give 60% confluency in 6-well plates. The p1583/+33MUC1.CAT or pHex4557.CAT vectors were transfected along with pSV2lacZ to determine promoter activity. 1 ug of each plasmid were used for each well. All conditions assayed were done in duplicate. The plasmids pRSV.CAT and promoterless pCAT were used as positive and negative controls, respectively. Cells extracts were prepared 48 hours after transfection and β-galactosidase activity was assayed to compensate for variations in transfection efficiency. CAT activity was determined from 75-100 ug of proteins. The reaction was carried out with 0.1 uCi of ^14C-labeled chloramphenicol in a 100 ul reaction at 37° C. for 4 hrs.

Assay [3] concerns HK II mRNA in NHBECs. In words: Ribonuclease protection assay of HK II mRNA. Format: cell-based, human. To be noted: 25 mM glucose, 100 nM insulin, 10 μM glucagon, 12 hr. Here is the method: For regulation studies, cells were grown to subconfluence in 75-cm^2 flasks, starved in serum-free, glucose-deficient RPMI 1640 medium (Canadian Life Technologies) for 18 hr, and induced in 25 mM glucose, 100 nM insulin, and 10 μM glucagon (Sigma Aldrich Canada) for 12 hr. RNA was extracted from cells using RNAzol (Tel-Test, Friendswood, Tex.) as described by the manufacturer. Contaminating DNA was digested with 5-10 units of DNase I (Pharmacia Biotech) in 10 mM MgCl2, 1 mM dithiothreitol (DTT), […] of RNA Guard (Pharmacia Biotech), 50-80 μl of total RNA at 1 μg/μl for 30 min at 37° C., followed by precipitation of total RNA.
The HK II probe (0.1 fmol) and the human β-actin probe (2 fmol) were simultaneously hybridized to 30 μg of total RNA using the RPA II kit (Ambion, Austin, Tex.) according to the manufacturer recommendations. Probes were prepared by in vitro transcription using the MAXIscript kit (Ambion) and [α-^32P]UTP (6000 Ci/mmol, 40 mCi/ml). HK II (nucleotides 1500 to 1803 of HK II cDNA; GenBank Z-16376) was inserted in the pDP18-T7/T3 vector (Ambion). The template was cut with KpnI at the 5′ end of the insert and transcribed toward that site from the T7 promoter to produce a 430-bp transcript. The HK II-protected fragment is 303 bp. […] Quantitation was performed using the NIH Image 1.67b densitometry software.

Assay [4] in a line: MTT cell viability assay, pΔE1sp1B Hex TK transfectants treated with gancyclovir. Format: cell-based. To be noted: GCV 10 or 25 ug/ml, controls GCV alone or plasmid only. As for the experimental part:
Cells in the logarithmic phase of growth were resuspended at a concentration of 2×10^5 cells/ml. 2 ml/well were plated in 6-well plates. Plates were incubated for 24 h at 37° C. in 5% CO2. Subsequently, cells were transfected with the pΔE1sp1B Hex TK plasmid as described above. […] Each condition was done in triplicate. Cells survival was calculated in the treated population as a percentage of controls. Controls are cells transfected with the plasmid alone or treated with the drug alone. MTT assays was performed two days following treatment. The formazan crystals were dissolved in […] (Fisher) and glycine buffer (0.1 M glycine-0.1 M NaCl, pH 10.5). The formazan product formed by viable cells was quantitated by measuring the absorbance at a wavelength of 570 nm.
In general terms: Formazan colour is commonly taken as a measure of viable cells.

As for “insulin: bovine insulin, regulator of glucose metabolism”, the “HK II promoter activation, increase over basal” value in assay [1] is on record as “did not lead to significant differences”.
As to “glucagon: regulator of glucose metabolism, physiological inhibitor of Hex II”, the “effect on Hex II promoter activation” value in assay [2] is listed as “did not inhibit promoter activation”. Besides, the “HK II promoter activation, increase over basal” value in assay [1] was “did not lead to significant differences”. In addition, the “HK II mRNA level relative to basal” value in assay [3] is reported as “repressed HK II expression”.
`Nc1nc(O)c2ncn(COC(CO)CO)c2n1` [GCV, gancyclovir]: the “cell survival less than control cells” value in assay [4] was determined as 50%.

The values above are taken from patent US20010011128A1, “Hex II tumor-specific promoter and uses thereof” (priority 1996, published 2001).
